The record followed here is US11897880B2, “7,8-dihydrobenzo[e]pyrido[3,4-c]azocine-2,5(3H,6H)-dione derivatives useful as a factor XIa inhibitors” (Janssen Pharmaceutica NV, priority 2021, dated 2024).

Like-named read-outs stand apart in the source and are kept apart here.

Assay [1] has as its target Factor XIa (Homo sapiens, UniProt P03951). Put plainly: Factor XIa inhibition assay utilizing a fluorophore-quencher pair peptide substrate (FLINT). Conditions: for IC50: read-out: FXIa IC50; for Ki: read-out: FXIa Ki. In kind it is biochemical. In a few lines: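 Enzyme preincubated 30 min at room temperature with compound (11-point 3-fold dilution, top 100 nM, 2% DMSO), then 15 μM 5Fam-KLTRAETV-K5Tamra substrate added. Buffer: 50 mM Tris pH 7.5, 100 mM NaCl, 5 mM CaCl2, 0.1 mg/mL BSA, 0.03% CHAPS. Fluorescence (485/520 nm) read kinetically over 30 min; IC50 from 4-parameter logistic fit.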

Assay [2] concerns the target human plasma kallikrein (Homo sapiens, UniProt P03952). Put plainly: Kallikrein inhibition assay utilizing a quenched AMC peptide substrate (FLINT). In kind it is biochemical. The note with it: 30 min preincubation, 50 μM Z-Gly-Pro-Arg-AMC, 2 nM kallikrein. Summed up:
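Human plasma kallikrein (2 nM final) was preincubated 30 min at room temperature with compound (11-point 3-fold dilution, top 1 μM, 2% DMSO) in pH 7.5 Tris buffer with CaCl2, BSA and CHAPS. Z-Gly-Pro-Arg-AMC (50 μM final) fluorescence was read at 340/440 nm every 5 min for 30 min. IC50 came from a 4-parameter logistic fit.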

[3] abbreviates: 30 min preincubation, 5Fam-KLTRAETV-K5Tamra substrate 15 μM final, kinetic reads.
Where [4] appears, read: cells that print μM themselves in the nM column.
[5] abbreviates: cells that print μM themselves in the nM column, same assay conditions.

Sequence of human plasma kallikrein (P03952 391-638 limits assumed): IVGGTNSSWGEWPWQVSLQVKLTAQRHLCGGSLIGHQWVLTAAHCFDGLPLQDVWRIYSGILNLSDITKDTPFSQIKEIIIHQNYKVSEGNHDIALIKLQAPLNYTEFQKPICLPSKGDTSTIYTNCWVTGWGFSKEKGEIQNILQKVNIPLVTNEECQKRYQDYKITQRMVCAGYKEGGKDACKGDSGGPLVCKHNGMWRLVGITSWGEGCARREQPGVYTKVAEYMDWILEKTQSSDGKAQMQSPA
Sequence of human plasma kallikrein (P03952 20-390 partner limits assumed): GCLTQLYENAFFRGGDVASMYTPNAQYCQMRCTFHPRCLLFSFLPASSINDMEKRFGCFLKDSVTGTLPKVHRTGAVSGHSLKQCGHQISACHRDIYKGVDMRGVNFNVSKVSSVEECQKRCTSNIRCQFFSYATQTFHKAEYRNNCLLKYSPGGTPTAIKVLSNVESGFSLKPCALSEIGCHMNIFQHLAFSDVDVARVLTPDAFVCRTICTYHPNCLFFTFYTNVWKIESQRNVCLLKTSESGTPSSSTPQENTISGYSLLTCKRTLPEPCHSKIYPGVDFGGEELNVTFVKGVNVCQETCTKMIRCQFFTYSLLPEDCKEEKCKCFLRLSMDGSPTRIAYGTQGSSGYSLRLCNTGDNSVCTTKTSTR
Sequence of Factor XIa (P03951 388-625 limits assumed): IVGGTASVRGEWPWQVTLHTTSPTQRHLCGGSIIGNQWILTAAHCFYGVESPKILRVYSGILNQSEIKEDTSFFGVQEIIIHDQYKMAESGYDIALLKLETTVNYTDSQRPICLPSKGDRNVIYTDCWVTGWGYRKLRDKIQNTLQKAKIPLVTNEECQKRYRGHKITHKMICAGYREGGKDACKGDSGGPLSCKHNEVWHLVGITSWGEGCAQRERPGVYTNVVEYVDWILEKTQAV
Sequence of Factor XIa (P03951 19-387 partner limits assumed): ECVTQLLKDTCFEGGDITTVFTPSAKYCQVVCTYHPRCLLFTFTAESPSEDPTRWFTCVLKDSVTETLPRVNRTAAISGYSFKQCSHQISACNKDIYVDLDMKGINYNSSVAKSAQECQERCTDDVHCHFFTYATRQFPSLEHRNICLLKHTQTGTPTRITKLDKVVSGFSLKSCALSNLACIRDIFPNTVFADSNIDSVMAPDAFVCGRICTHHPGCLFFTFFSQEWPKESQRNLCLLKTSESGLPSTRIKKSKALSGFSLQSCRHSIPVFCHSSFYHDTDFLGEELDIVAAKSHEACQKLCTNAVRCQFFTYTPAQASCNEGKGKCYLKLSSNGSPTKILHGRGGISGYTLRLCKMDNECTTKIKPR

As to `COCCN1C(=O)c2c(cc(=O)n3c2CC[C@H]3c2ncc(-c3ccc(N)nc3F)[nH]2)-c2c(ccc(Cl)c2F)CC12CC2` (stereo in doubt) [Compound 25, (S*)-12-(5-(6-amino-2-fluoropyridin-3-yl)-1H-imidazol-2-yl)-7-chloro-8-fluoro-2-(2-methoxyethyl)-13,14-dihydro-2H-spiro[benzo[5,6]azocino[4,3-g]indolizine-3,1′-cyclopropane]-1,10(4H,12H)-dione], the IC50 in assay [1] (setting [3]) is 0.26 µM; in assay [2], > 10000 nM. Moreover, the Ki in assay [1] was determined as 0.13 µM.
For `O=C1NC2(CC2)Cc2ccc(Cl)c(F)c2-c2cc(=O)n3c(c21)CC[C@@H]3c1ncc(-c2ccc3scnc3c2)[nH]1` (stereo in doubt) [Compound 26, (R*)-12-(5-(benzo[d]thiazol-5-yl)-1H-imidazol-2-yl)-7-chloro-8-fluoro-13,14-dihydro-2H-spiro[benzo[5,6]azocino[4,3-g]indolizine-3,1′-cyclopropane]-1,10(4H,12H)-dione] the same measures were 0.0005 µM, 70 nM and 0.0003 µM.
Regarding `O=C1NC2(CC2)Cc2ccc(Cl)c(F)c2-c2cc(=O)n3c(c21)CC[C@H]3c1ncc(-c2ccc3scnc3c2)[nH]1` (stereo in doubt) [Compound 27, (S*)-12-(5-(benzo[d]thiazol-5-yl)-1H-imidazol-2-yl)-7-chloro-8-fluoro-13,14-dihydro-2H-spiro[benzo[5,6]azocino[4,3-g]indolizine-3,1′-cyclopropane]-1,10(4H,12H)-dione], the Ki in assay [1] (setting [4]) turned out to be 1.19 µM. Moreover, the results for the IC50 in assay [1] (setting [5]) and in assay [2] were 2.39 µM and > 10000 nM, respectively.
As for `O=C1NC2(CC2)Cc2ccc(Cl)c(F)c2-c2cc(=O)n3c(c21)CC[C@@H]3c1ncc(-c2ccc3snnc3c2)[nH]1` (stereo in doubt) [Compound 30, (R*)-12-(5-(benzo[d][1,2,3]thiadiazol-5-yl)-1H-imidazol-2-yl)-7-chloro-8-fluoro-13,14-dihydro-2H-spiro[benzo[5,6]azocino[4,3-g]indolizine-3,1′-cyclopropane]-1,10(4H,12H)-dione], the IC50 amounted to 0.0057 µM in assay [1] (setting [3]) and 330 nM in assay [2]. Moreover, the Ki in assay [1] is 0.0029 µM.
On to `O=C1NC2(CC2)Cc2ccc(Cl)c(F)c2-c2cc(=O)n3c(c21)CC[C@H]3c1ncc(-c2ccc3snnc3c2)[nH]1` (stereo in doubt) [Compound 31, (S*)-12-(5-(benzo[d][1,2,3]thiadiazol-5-yl)-1H-imidazol-2-yl)-7-chloro-8-fluoro-13,14-dihydro-2H-spiro[benzo[5,6]azocino[4,3-g]indolizine-3,1′-cyclopropane]-1,10(4H,12H)-dione], for which the values for the IC50 in assay [1] (setting [5]) and in assay [2] were 1.18 µM and > 10000 nM, respectively. In addition, the Ki in assay [1] came out at 0.588 µM.
With `Nc1ccc(-c2cnc([C@@H]3CCc4c5c(cc(=O)n43)-c3c(ccc(Cl)c3F)CC3(CCC3)NC5=O)[nH]2)c(F)n1` (stereo in doubt) [Compound 32, (S*)-12-(5-(6-amino-2-fluoropyridin-3-yl)-1H-imidazol-2-yl)-7-chloro-8-fluoro-13,14-dihydro-2H-spiro[benzo[5,6]azocino[4,3-g]indolizine-3,1′-cyclobutane]-1,10(4H,12H)-dione], the IC50 in assay [1] (setting [3]) was 0.0007 µM; in assay [2], 230 nM. Further, in assay [1], the Ki came out at 0.0004 µM.
As to `Nc1ccc(-c2cnc([C@H]3CCc4c5c(cc(=O)n43)-c3c(ccc(Cl)c3F)CC3(CCC3)NC5=O)[nH]2)c(F)n1` (stereo in doubt) [Compound 33, (R*)-12-(5-(6-amino-2-fluoropyridin-3-yl)-1H-imidazol-2-yl)-7-chloro-8-fluoro-13,14-dihydro-2H-spiro[benzo[5,6]azocino[4,3-g]indolizine-3,1′-cyclobutane]-1,10(4H,12H)-dione], the IC50 in assay [1] (setting [3]) was 0.237 µM; in assay [2] it was > 10000 nM. The Ki in assay [1] was determined as 0.118 µM.
Consider `Nc1ccc(-c2cnc([C@H]3CCc4c5c(cc(=O)n43)-c3c(ccc(Cl)c3F)CC3(CCCC3)NC5=O)[nH]2)c(F)n1` (stereo in doubt) [Compound 34, (R*)-12-(5-(6-amino-2-fluoropyridin-3-yl)-1H-imidazol-2-yl)-7-chloro-8-fluoro-13,14-dihydro-2H-spiro[benzo[5,6]azocino[4,3-g]indolizine-3,1′-cyclopentane]-1,10(4H,12H)-dione], for which the IC50 is 0.0337 µM in assay [1] (setting [3]) and 6210 nM in assay [2]. Besides, in assay [1], the Ki was 0.0169 µM.
For `Nc1ccc(-c2cnc([C@@H]3CCc4c5c(cc(=O)n43)-c3c(ccc(Cl)c3F)CC3(CCCC3)NC5=O)[nH]2)c(F)n1` (stereo in doubt) [Compound 35, (S*)-12-(5-(6-amino-2-fluoropyridin-3-yl)-1H-imidazol-2-yl)-7-chloro-8-fluoro-13,14-dihydro-2H-spiro[benzo[5,6]azocino[4,3-g]indolizine-3,1′-cyclopentane]-1,10(4H,12H)-dione] the same measures were 0.0004 µM, 90 nM and 0.0002 µM.
Consider `CN1C(=O)c2c(cc(=O)n3c2CC[C@@H]3c2ncc(-c3ccc(N)nc3F)[nH]2)-c2c(ccc(Cl)c2F)CC12CC2` (stereo in doubt) [Compound 40, (R*)-12-(5-(6-amino-2-fluoropyridin-3-yl)-1H-imidazol-2-yl)-7-chloro-8-fluoro-2-methyl-13,14-dihydro-2H-spiro[benzo[5,6]azocino[4,3-g]indolizine-3,1′-cyclopropane]-1,10(4H,12H)-dione], for which the Ki in assay [1] (setting [4]) is > 5 µM. The results for the IC50 in assay [1] (setting [5]) and in assay [2] were > 10 µM and > 10000 nM, respectively.
Consider `CN1C(=O)c2c(cc(=O)n3c2CC[C@H]3c2ncc(-c3ccc(N)nc3F)[nH]2)-c2c(ccc(Cl)c2F)CC12CC2` (stereo in doubt) [Compound 41, (S*)-12-(5-(6-amino-2-fluoropyridin-3-yl)-1H-imidazol-2-yl)-7-chloro-8-fluoro-2-methyl-13,14-dihydro-2H-spiro[benzo[5,6]azocino[4,3-g]indolizine-3,1′-cyclopropane]-1,10(4H,12H)-dione], for which the results for the IC50 in assay [1] (setting [3]) and in assay [2] were 0.0086 µM and > 10000 nM, respectively. For the same compound, the Ki in assay [1] turned out to be 0.0043 µM.
`Cn1nncc1-c1cnc([C@@H]2CCc3c4c(cc(=O)n32)-c2c(ccc(Cl)c2F)CC2(CC2)NC4=O)[nH]1` (stereo in doubt) [Compound 42, (S*)-7-chloro-8-fluoro-12-(5-(1-methyl-1H-1,2,3-triazol-5-yl)-1H-imidazol-2-yl)-13,14-dihydro-2H-spiro[benzo[5,6]azocino[4,3-g]indolizine-3,1′-cyclopropane]-1,10(4H,12H)-dione]: the values for the IC50 in assay [1] (setting [3]) and in assay [2] were 0.928 µM and > 10000 nM, respectively. Also, in assay [1], the inhibition constant (Ki) amounted to 0.464 µM.
For `Cn1nncc1-c1cnc([C@H]2CCc3c4c(cc(=O)n32)-c2c(ccc(Cl)c2F)CC2(CC2)NC4=O)[nH]1` (stereo in doubt) [Compound 43, (R*)-7-chloro-8-fluoro-12-(5-(1-methyl-1H-1,2,3-triazol-5-yl)-1H-imidazol-2-yl)-13,14-dihydro-2H-spiro[benzo[5,6]azocino[4,3-g]indolizine-3,1′-cyclopropane]-1,10(4H,12H)-dione], in assay [1] (setting [4]), the Ki was > 5 µM. The values for the IC50 in assay [1] (setting [5]) and in assay [2] were > 10 µM and > 10000 nM, respectively.
`Cn1nncc1-c1cnc([C@@H]2CCc3c4c(cc(=O)n32)-c2c(ccc(Cl)c2F)CCNC4=O)[nH]1` (stereo in doubt) [Compound 44, (S*)-7-chloro-8-fluoro-12-(5-(1-methyl-1H-1,2,3-triazol-5-yl)-1H-imidazol-2-yl)-3,4,13,14-tetrahydrobenzo[5,6]azocino[4,3-g]indolizine-1,10(2H,12H)-dione]: in assay [1] (setting [4]), the inhibition constant Ki was > 5 µM. Also, the IC50 in assay [1] (setting [5]) is > 10 µM; in assay [2] it was > 10000 nM.
On to `Cn1nncc1-c1cnc([C@H]2CCc3c4c(cc(=O)n32)-c2c(ccc(Cl)c2F)CCNC4=O)[nH]1` (stereo in doubt) [Compound 45, (R*)-7-chloro-8-fluoro-12-(5-(1-methyl-1H-1,2,3-triazol-5-yl)-1H-imidazol-2-yl)-3,4,13,14-tetrahydrobenzo[5,6]azocino[4,3-g]indolizine-1,10(2H,12H)-dione], for which the Ki in assay [1] (setting [4]) worked out at 2.58 µM. Further, the IC50 is 5.15 µM in assay [1] (setting [5]) and > 10000 nM in assay [2].
For the compound `Nc1ccc(-c2cnc([C@@H]3CCc4c5c(cc(=O)n43)-c3c(ccc(Cl)c3F)CCNC5=O)[nH]2)c(F)n1` (stereo in doubt) [Compound 46, (S*)-12-(5-(6-amino-2-fluoropyridin-3-yl)-1H-imidazol-2-yl)-7-chloro-8-fluoro-3,4,13,14-tetrahydrobenzo[5,6]azocino[4,3-g]indolizine-1,10(2H,12H)-dione], the Ki in assay [1] (setting [4]) was 4.57 µM. The IC50 was 9.15 µM in assay [1] (setting [5]) and > 10000 nM in assay [2].
For `Nc1ccc(-c2cnc([C@H]3CCc4c5c(cc(=O)n43)-c3c(ccc(Cl)c3F)CCNC5=O)[nH]2)c(F)n1` (stereo in doubt) [Compound 47, (R*)-12-(5-(6-amino-2-fluoropyridin-3-yl)-1H-imidazol-2-yl)-7-chloro-8-fluoro-3,4,13,14-tetrahydrobenzo[5,6]azocino[4,3-g]indolizine-1,10(2H,12H)-dione], the values for the IC50 in assay [1] (setting [3]) and in assay [2] were 0.005 µM and 400 nM, respectively. For the same compound, the Ki in assay [1] is 0.0025 µM.
